Laboratory results from patent US7989438B2, “Therapeutic compounds” (Istituto di Ricerche di Biologia Molecolare P. Angeletti SpA, priority 2007, dated 2011).
Like-named read-outs stand apart in the source and are kept apart here.

Tested on: HCV subgenomic replication
Experiment: Cell based HCV replication assay (subgenomic replicon in Huh-7 cells, NS3 Cell-ELISA)
Conditions: activity ranges
From the text: Cell clones that stably maintain subgenomic HCV replicon were obtained by transfecting Huh-7 cells with an RNA replicon identical to I377neo/NS3-3′/wt described by Lohmann et al. (1999) (EMBL-genbank No. AJ242652), followed by selection with neomycin sulfate (G418). Viral replication was monitored by measuring the expression of the NS3 protein by an ELISA assay performed directly on cells grown in 96 wells microtiter plates (Cell-ELISA) using the anti-NS3 monoclonal antibody 10E5/24 (as described in published International application WO 02/59321). Cells were seeded into 96 well plates at a density of 10^4 cells per well in a final volume of 0.1 ml of DMEM/10% FCS. Two hours after plating, 50 μl of DMEM/10% FCS containing a 3× concentration of inhibitor were added, cells were incubated for 96 hours and then fixed for 10 minutes with ice-cold isopropanol. Each condition was tested in duplicate and average absorbance values were used for calculations. The cells were washed twice with PBS, blocked with 5% non-fat dry milk in PBS+0.1% Triton X100+0.02% SDS (PBSTS) and then incubated o/n at 4° C. with the 10E5/24 mab diluted in Milk/PBSTS. After washing 5 times with PBSTS, the cells were incubated for 3 hours at room temperature with Fc specific anti-mouse IgG conjugated to alkaline phosphatase (Sigma), diluted in Milk/PBSTS. After washing again as above, the reaction was developed with p-Nitrophenyl phosphate disodium substrate (Sigma) and the absorbance at 405/620 nm read at intervals. For calculations, we used data sets where samples incubated without inhibitors had absorbance values comprised between 1 and 1.5. The inhibitor concentration that reduced by 50% the expression of NS3 (IC50) was calculated by fitting the data to the Hill equation, Fraction inhibition=1−(Ai−b)/(A0−b)=[I]^n/([I]^n+[…]) where: • Ai=absorbance value of HBI10 cells supplemented with the indicated inhibitor concentration. • A0=absorbance value of HBI10 cells incubated without inhibitor. • b=absorbance value of Huh-7 cells plated at the same density in the same microtiter plates and incubated without inhibitor. • n=Hill coefficient.

[1] = Table 5, various macrocycles, read-out: IC50* (nM), Inhibition of HCV subgenomic replication
[2] = Table 1, 16 membered macrocycles, read-out: IC50* (nM), Inhibition of HCV subgenomic replication
[3] = Table A, Huh-7 replicon cells, 96 hours, read-out: IC50 (nM), Inhibition of HCV subgenomic replication
[4] = Table 2, various macrocycles, read-out: IC50* (nM), Inhibition of HCV subgenomic replication
[5] = Hepatitis C virus, Huh-7, Table 3, various macrocycles, read-out: IC50* (nM), Inhibition of HCV subgenomic replication
[6] = Hepatitis C virus, Huh-7, Table 5, various macrocycles, read-out: IC50* (nM), Inhibition of HCV subgenomic replication

## Cc1cccc2c1OCC1Cn3c-2c(C2CCCCC2)c2ccc(cc23)C(=O)NS(=O)(=O)N(C)CCNCCN1C [Example 515, (7R)-14-cyclohexyl-4,18,24-trimethyl-7,8-dihydro-6H-7,11-(epiminoethanoiminoethanoiminothioiminomethano)-indolo[1,2-e][1,5]benzoxazocin-15-one 17,17-dioxide]
[1]
  IC50: < 25 nM

## CCN1CCN(CC)C2COc3ccccc3-c3c(C4CCCCC4)c4ccc(cc4n3C2)C(=O)NS(=O)(=O)N(C)CC1 [Example 107, (7R)-14-cyclohexyl-21,24-diethyl-18-methyl-7,8-dihydro-6H-7,11-(epiminoethanoiminoethanoiminothioiminomethano)-indolo[1,2-e][1,5]benzoxazocin-15-one 17,17-dioxide]
[2]
  IC50: < 25 nM

## CN1CCN(C)C2COc3c(OCCN4CCCC4)cccc3-c3c(C4CCCCC4)c4ccc(cc4n3C2)C(=O)NS(=O)(=O)N(C)CC1 [Compound A32, (7R)-14-cyclohexyl-18,21,24-trimethyl-4-(2-pyrrolidin-1-ylethoxy)-7,8-dihydro-6H-7,11-(epiminoethanoiminoethanoiminothioiminomethano)indolo[1,2-e][1,5]benzoxazocin-15-one 17,17-dioxide]
[3]
  IC50: < 25 nM

## CN1CCN2CCN(CC2)S(=O)(=O)NC(=O)c2ccc3c(C4CCCCC4)c4n(c3c2)C[C@@H]1COc1ccccc1-4 [Compound A6, (20R)-30-cyclohexyl-21-methyl-18-oxa-2-thia-1,3,10,21,24-pentaazahexacyclo[22.2.2.1^5,9.1^8,11.1^10,20.0^12,17]hentriaconta-5(31),6,8,11(30),12,14,16-heptaen-4-one 2,2-dioxide]
Hepatitis C virus, Table A, Huh-7 replicon cells, 96 hours, read-out: IC50 (nM), Inhibition of HCV subgenomic replication
  IC50: 25 to 150 nM

## Cc1ccc2c(c1)OCC1Cn3c-2c(C2CCCCC2)c2ccc(cc23)C(=O)NS(=O)(=O)N(C)CCN(C(C)C)CCN1C [Example 218, (7R)-14-cyclohexyl-21-isopropyl-3,18,24-trimethyl-7,8-dihydro-6H-7,11-(epiminoethanoiminoethanoiminothioiminomethano)-indolo[1,2-e][1,5]benzoxazocin-15-one 17,17-dioxide]
[4]
  IC50: < 25 nM

## O=C1NS(=O)(=O)N2CCN(CCN(CCF)[C@H]3COc4ccccc4-c4c(C5CCCCC5)c5ccc1cc5n4C3)CC2 [Example 308, (20R)-30-cyclohexyl-21-(2-fluoroethyl)-18-oxa-2-thia-1,3,10,21,24-pentaazahexacyclo[22.2.2.1^5,9.1^8,11.1^10,20.0^12,17]hentriaconta-5(31),6,8,11(30),12,14,16-heptaen-4-one 2,2-dioxide]
[5]
  IC50: 25 to 150 nM

## CN1CCN(CCOCc2ccccc2)CCN(C)S(=O)(=O)NC(=O)c2ccc3c(C4CCCCC4)c4n(c3c2)CC1COc1ccccc1-4 [Example 102, (7R)-21-[2-(benzyloxy)ethyl]-14-cyclohexyl-18,24-dimethyl-7,8-dihydro-6H-7,11-(epiminoethanoiminoethanoiminothioiminomethano)-indolo[1,2-e][1,5]benzoxazocin-15-one 17,17-dioxide]
[2]
  IC50: < 25 nM

## COc1cccc2c1OCC1Cn3c-2c(C2CCCCC2)c2ccc(cc23)C(=O)NS(=O)(=O)N(C)CCNCCN1C [Compound A27, (7R)-14-cyclohexyl-4-methoxy-18,24-dimethyl-7,8-dihydro-6H-7,11-(epiminoethanoiminoethanoiminothioiminomethano)indolo[1,2-e][1,5]benzoxazocin-15-one 17,17-dioxide]
[3]
  IC50: < 25 nM

## CC(C)N1CCN(C)C2COc3ccccc3-c3c(C4CCCCC4)c4ccc(cc4n3C2)C(=O)NS(=O)(=O)N(C)CC1 [Compound A4, (7R)-14-cyclohexyl-21-isopropyl-18,24-dimethyl-7,8-dihydro-6H-7,11-(epiminoethanoiminoethanoiminothioiminomethano)indolo[1,2-e][1,5]benzoxazocin-15-one 17,17-dioxide]
[3]
  IC50: < 25 nM

## CN1CCCN(CCO)CCC2COc3ccccc3-c3c(C4CCCCC4)c4ccc(cc4n3C2)C(=O)NS1(=O)=O (single isomer, unassigned) [Example 507, (7R) or (7S)-14-cyclohexyl-22-(2-hydroxyethyl)-18-methyl-7,8-dihydro-6H-7,11-(ethanoiminopropanoiminothioiminomethano)indolo[1,2-e][1,5]benzoxazocin-15-one 17,17-dioxide]
[1]
  IC50: < 25 nM

## COc1ccc2c(c1)OCC1CCN(C)CC(F)CN(C)S(=O)(=O)NC(=O)c3ccc4c(C5CCCCC5)c-2n(c4c3)C1 [Example 525, (7R)-14-cyclohexyl-20-fluoro-3-methoxy-18,22-dimethyl-7,8-dihydro-6H-7,11-(ethanoiminopropanoiminothioiminomethano)indolo[1,2-e][1,5]benzoxazocin-15-one 17,17-dioxide]
[1]
  IC50: < 25 nM

## COc1cccc2c1OCC1Cn3c-2c(C2CCCCC2)c2ccc(cc23)C(=O)NS(=O)(=O)N(C)CCN(Cc2cnn(C)c2)CCN1C [Compound A29, (7R)-14-cyclohexyl-4-methoxy-18,24-dimethyl-21-[(1-methyl-1H-pyrazol-4-yl)methyl]-7,8-dihydro-6H-7,11-(epiminoethanoiminoethanoiminothioiminomethano)indolo[1,2-e][1,5]benzoxazocin-15-one 17,17-dioxide]
[3]
  IC50: < 25 nM

## CN1CCC2COc3ccccc3-c3c([C@H]4CCCC[C@@H]4F)c4ccc(cc4n3C2)C(=O)NS(=O)(=O)N2CCC1CC2 (single isomer, unassigned) [Example 502, 30-[(1R,2S) or (1S,2R)-2-fluorocyclohexyl]-23-methyl-18-oxa-2-thia-1,3,10,23-tetraazahexacyclo[22.2.2.1^5,9.1^8,11.1^10,20.0^12,17]hentriaconta-5(31),6,8,11(30),12,14,16-heptaen-4-one 2,2-dioxide]
[6]
  IC50: 25 to 150 nM

## CN1CCCN(CCN2CCCC2)S(=O)(=O)NC(=O)c2ccc3c(C4CCCCC4)c4n(c3c2)CC(CC1)COc1ccccc1-4 (single isomer, unassigned) [Example 505, (7R) or (7S)-14-cyclohexyl-22-methyl-18-(2-pyrrolidin-1-ylethyl)-7,8-dihydro-6H-7,11-(ethanoiminopropanoiminothioiminomethano)indolo[1,2-e][1,5]benzoxazocin-15-one 17,17-dioxide]
[1]
  IC50: 25 to 150 nM

## CN(C)CCN1CCOCCN(C)S(=O)(=O)NC(=O)c2ccc3c(C4CCCCC4)c4n(c3c2)CC1COc1ccccc1-4 [Example 402, (7R)-14-cyclohexyl-24-[2-(dimethylamino)ethyl]-18-methyl-7,8-dihydro-6H-7,11-(epiminoethanooxyethanoiminothioiminomethano)indolo[1,2-e][1,5]benzoxazocin-15-one 17,17-dioxide]
Table 4, various macrocycles, read-out: IC50* (nM), Inhibition of HCV subgenomic replication
  IC50: < 25 nM

## O=C1NS(=O)(=O)N2CCCN(CCCC3COc4ccccc4-c4c(C5CCCCC5)c5ccc1cc5n4C3)CC2 (stereo not shown) [Example 508, 31-cyclohexyl-18-oxa-2-thia-1,3,10,24-tetraazahexacyclo[22.3.2.1^5,9.1^8,11.1^10,20.0^12,17]dotriaconta-5(32),6,8,11(31),12,14,16-heptaen-4-one 2,2-dioxide]
[6]
  IC50: 25 to 150 nM

## Cc1cccc2c1OCC1CCN(C)CCCN(C)S(=O)(=O)NC(=O)c3ccc4c(C5CCCCC5)c-2n(c4c3)C1 [Example 521, (7R)-14-cyclohexyl-4,18,22-trimethyl-7,8-dihydro-6H-7,11-(ethanoiminopropanoiminothioiminomethano)indolo[1,2-e][1,5]benzoxazocin-15-one 17,17-dioxide]
[1]
  IC50: < 25 nM

## CCN1CCN(CCN(C)C)C2COc3ccccc3-c3c(C4CCCCC4)c4ccc(cc4n3C2)C(=O)NS(=O)(=O)N(C)CC1 [Example 217, (7R)-14-cyclohexyl-24-[2-(dimethylamino)ethyl]-21-ethyl-18-methyl-7,8-dihydro-6H-7,11-(epiminoethanoiminoethanoiminothioiminomethano)-indolo[1,2-e][1,5]benzoxazocin-15-one 17,17-dioxide]
[4]
  IC50: < 25 nM

## O=C1NS(=O)(=O)N2CCCN(CCN(Cc3ccccc3)[C@H]3COc4ccccc4-c4c(C5CCCCC5)c5ccc1cc5n4C3)CC2 [Example 309, (20R)-21-benzyl-31-cyclohexyl-18-oxa-2-thia-1,3,10,21,24-pentaazahexacyclo[22.3.2.1^5,9.1^8,11.1^10,20.0^12,17]dotriaconta-5(32),6,8,11(31),12,14,16-heptaen-4-one 2,2-dioxide]
[5]
  IC50: 150 to 500 nM
